In this test the test system is CD2F1 mice, L1210 leukemia ip, survival T/C. Kind of test: NCI In Vivo Anticancer Drug Screen. Data for tumor model L1210 Leukemia (intraperitoneal) in CD2F1 (CDF1) mice. The following applies: higher = longer survival. The method, boiled down:
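Implant tumor; dose compound or vehicle; measure endpoint in both groups; report treated divided by control.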

Where [1] appears, read: endpoint: mean survival time, dose: 100.0 mg/kg/injection, schedule: Q04DX003 (ip), vehicle: saline with Tween-80.
Where [2] appears, read: endpoint: mean survival time, dose: 200.0 mg/kg/injection, schedule: Q04DX003 (ip), vehicle: saline with Tween-80.
Setting [3] is: endpoint: mean survival time, dose: 0.5 mg/kg/injection, schedule: Q01DX009 (ip), vehicle: saline.
[4] abbreviates: endpoint: mean survival time, dose: 1.0 mg/kg/injection, schedule: Q01DX009 (ip), vehicle: saline.
Setting [5] is: endpoint: mean survival time, dose: 400.0 mg/kg/injection, schedule: Q04DX003 (ip), vehicle: saline with Tween-80.

The values that follow come from PubChem BioAssay AID256 (DTP/NCI, 2004).

“And” between values parts separate entries of the source, which are not always exact repeats. Equal values may be shown once. Toxic doses and inconclusive results are not listed.

With `CN(C)N=C1CCCC1`, the T/C (endpoint: mean survival time, dose: 50.0 mg/kg/injection, schedule: Q04DX003 (ip), vehicle: saline with Tween-80) was 101 % of control; the T/C (endpoint: mean survival time, dose: 75.0 mg/kg/injection, schedule: Q01DX001 (ip), vehicle: saline) was 98 % of control; the T/C under setting [1] was 95 % of control; the T/C (endpoint: mean survival time, dose: 150.0 mg/kg/injection, schedule: Q01DX001 (ip), vehicle: saline) was 100 % of control; the T/C under setting [2] is 100 % of control.

Consider `COC(C(=O)C(O)C(C)O)C1CC2C=C3C=C(OC4CC(OC5CC(O)C(OC)C(C)O5)C(OC(C)=O)C(C)O4)C(C)C(=O)C3=C(O)C2=C(O)C1OC1CC(OC2CC(OC3CC(C)(O)C(O)C(C)O3)C(O)C(C)O2)C(O)C(C)O1` (centres undefined), for which the T/C is 92 % of control and 101 % of control and 104 % of control (endpoint: mean survival time, dose: 0.25 mg/kg/injection, schedule: Q01DX009 (ip), vehicle: saline with Tween-80); 100 % of control and 101 % of control (2×) (endpoint: mean survival time, dose: 0.5 mg/kg/injection, schedule: Q01DX009 (ip), vehicle: saline with Tween-80); 124 % of control under setting [3]; 101 % of control and 102 % of control (endpoint: mean survival time, dose: 1.0 mg/kg/injection, schedule: Q01DX009 (ip), vehicle: saline with Tween-80); 98 % of control under setting [4]; 121 % of control and 108 % of control (endpoint: mean survival time, dose: 2.0 mg/kg/injection, schedule: Q01DX009 (ip), vehicle: saline with Tween-80). The T/C runs as follows: (endpoint: mean survival time, dose: 4.0 mg/kg/injection, schedule: Q01DX009 (ip), vehicle: saline) 115 % of control; (endpoint: mean survival time, dose: 8.0 mg/kg/injection, schedule: Q01DX009 (ip), vehicle: saline with Tween-80) 189 % of control; (endpoint: mean survival time, dose: 8.0 mg/kg/injection, schedule: Q01DX009 (ip), vehicle: saline) 124 % of control.

Turning to `Clc1ccc(NC2=NCCO2)cc1`, the T/C (endpoint: mean survival time, dose: 100.0 mg/kg/injection, schedule: Q04DX003 (ip), vehicle: Klucel (hydroxypropylcellulose) (HPC)) is 94 % of control.

In the case of `C[C@]12CC[C@H](OC3OC(CO)C(O)C(O)C3O)C[C@H]1CC[C@@H]1[C@@H]2CC[C@]2(C)[C@@H](C3=CCOC3=O)CC[C@]12O` (some centres undefined), the T/C is, setting by setting: under setting [3], 110 % of control; under setting [4], 110 % of control; (endpoint: mean survival time, dose: 2.0 mg/kg/injection, schedule: Q01DX009 (ip), vehicle: saline) 107 % of control; (endpoint: median survival time, dose: 0.5 mg/kg/injection, schedule: Q01DX009 (ip), vehicle: saline) 112 % of control; (endpoint: median survival time, dose: 1.0 mg/kg/injection, schedule: Q01DX009 (ip), vehicle: saline) 108 % of control; (endpoint: median survival time, dose: 2.0 mg/kg/injection, schedule: Q01DX009 (ip), vehicle: saline) 113 % of control. Also, for the setting “endpoint: median survival time, dose: 4.0 mg/kg/injection, schedule: Q01DX009 (ip), vehicle: saline”, the T/C is 91 % of control.

Take `CC(C)(C)OC1C2C=CC1C1C2C2(Cl)C(Cl)=C(Cl)C1(Cl)C21OCCO1` (centres undefined): the T/C (endpoint: mean survival time, dose: 41.25 mg/kg/injection, schedule: Q04DX002 (ip), vehicle: Klucel (hydroxypropylcellulose) (HPC)) is 98 % of control; the T/C (endpoint: mean survival time, dose: 50.0 mg/kg/injection, schedule: Q04DX002 (ip), vehicle: Klucel (hydroxypropylcellulose) (HPC)) is 97 % of control; the T/C (endpoint: mean survival time, dose: 82.5 mg/kg/injection, schedule: Q04DX002 (ip), vehicle: Klucel (hydroxypropylcellulose) (HPC)) is 100 % of control; the T/C (endpoint: mean survival time, dose: 100.0 mg/kg/injection, schedule: Q04DX002 (ip), vehicle: Klucel (hydroxypropylcellulose) (HPC)) is 98 % of control; the T/C (endpoint: mean survival time, dose: 165.0 mg/kg/injection, schedule: Q04DX002 (ip), vehicle: Klucel (hydroxypropylcellulose) (HPC)) was 98 % of control; the T/C (endpoint: mean survival time, dose: 200.0 mg/kg/injection, schedule: Q04DX002 (ip), vehicle: Klucel (hydroxypropylcellulose) (HPC)) is 98 % of control. Moreover, the T/C is 98 % of control (endpoint: mean survival time, dose: 330.0 mg/kg/injection, schedule: Q04DX002 (ip), vehicle: Klucel (hydroxypropylcellulose) (HPC)) and 97 % of control (endpoint: mean survival time, dose: 400.0 mg/kg/injection, schedule: Q04DX002 (ip), vehicle: Klucel (hydroxypropylcellulose) (HPC)).

Take `O=C(CC(=O)Oc1ccc(Cl)cc1Cl)Oc1ccc(Cl)cc1Cl`: the T/C reads like this: under setting [1], 97 % of control; under setting [2], 101 % of control; under setting [5], 95 % of control.

With `FC(F)(F)c1cccc(C(OCCN2CCCC2)c2ccccc2)c1` (centres undefined), the T/C runs as follows: (endpoint: mean survival time, dose: 6.25 mg/kg/injection, schedule: Q01DX009 (ip), vehicle: saline) 105 % of control; (endpoint: mean survival time, dose: 12.5 mg/kg/injection, schedule: Q01DX009 (ip), vehicle: saline) 105 % of control; (endpoint: mean survival time, dose: 25.0 mg/kg/injection, schedule: Q01DX009 (ip), vehicle: saline) 109 % of control.

As to `CCC(CCC(C)C1CCC2C3CC=C4CC(OC(=O)CCC(=O)O)CCC4(C)C3CCC12C)C(C)C` (centres undefined), the T/C reads like this: under setting [1], 90 % of control; under setting [2], 90 % of control; under setting [5], 93 % of control.

As for `CN(Cc1cnc2nc(N)nc(N)c2n1)c1ccc(C(=O)NC(CCC(=O)O)C(=O)O)cc1.[W]` (centres undefined), the T/C is 178 % of control (endpoint: median survival time, dose: 11.0 mg/kg/injection, schedule: Q01DX009 (ip), vehicle: water); 202 % of control (endpoint: median survival time, dose: 12.0 mg/kg/injection, schedule: Q01DX009 (ip), vehicle: water); 202 % of control (endpoint: median survival time, dose: 12.0 mg/kg/injection, schedule: Q01DX009 (other), vehicle: water); 190 % of control (endpoint: median survival time, dose: 14.0 mg/kg/injection, schedule: Q01DX009 (ip), vehicle: water); 190 % of control (endpoint: median survival time, dose: 14.0 mg/kg/injection, schedule: Q## X009 (ip), vehicle: water); 178 % of control (endpoint: median survival time, dose: 21.0 mg/kg/injection, schedule: Q01DX009 (ip), vehicle: water). The T/C is 190 % of control (endpoint: median survival time, dose: 22.0 mg/kg/injection, schedule: Q01DX009 (ip), vehicle: water); 190 % of control (endpoint: median survival time, dose: 22.0 mg/kg/injection, schedule: Q01DX009 (other), vehicle: water); 166 % of control (endpoint: median survival time, dose: 41.0 mg/kg/injection, schedule: Q01DX009 (ip), vehicle: water); 166 % of control (endpoint: median survival time, dose: 42.0 mg/kg/injection, schedule: Q01DX009 (ip), vehicle: water); 166 % of control (endpoint: median survival time, dose: 42.0 mg/kg/injection, schedule: Q01DX009 (other), vehicle: water).

For `CC(C)N1CC(COc2cccc3ccccc23)OP1(=O)N(CCCl)CCCl` (centres undefined), the T/C (endpoint: mean survival time, dose: 31.25 mg/kg/injection, schedule: Q01DX001 (ip), vehicle: distilled water + Tween-80) was 101 % of control; the T/C (endpoint: mean survival time, dose: 62.5 mg/kg/injection, schedule: Q01DX001 (ip), vehicle: distilled water + Tween-80) was 101 % of control; the T/C (endpoint: mean survival time, dose: 125.0 mg/kg/injection, schedule: Q01DX001 (ip), vehicle: distilled water + Tween-80) was 95 % of control and 98 % of control and 101 % of control; the T/C (endpoint: mean survival time, dose: 250.0 mg/kg/injection, schedule: Q01DX001 (ip), vehicle: distilled water + Tween-80) was 93 % of control and 103 % of control and 111 % of control; the T/C (endpoint: mean survival time, dose: 500.0 mg/kg/injection, schedule: Q01DX001 (ip), vehicle: distilled water + Tween-80) is 90 % of control and 110 % of control; the T/C (endpoint: mean survival time, dose: 1000.0 mg/kg/injection, schedule: Q01DX001 (ip), vehicle: distilled water + Tween-80) is 113 % of control and 93 % of control.

With `CC(=O)Nc1ncc2ccccc2c1-c1ccc(NC(=O)CN(CCO)CCO)cc1`, the T/C is, setting by setting: (endpoint: mean survival time, dose: 25.0 mg/kg/injection, schedule: Q04DX003 (ip), vehicle: other) 104 % of control; (endpoint: mean survival time, dose: 50.0 mg/kg/injection, schedule: Q04DX003 (ip), vehicle: other) 108 % of control; (endpoint: mean survival time, dose: 100.0 mg/kg/injection, schedule: Q04DX003 (ip), vehicle: other) 100 % of control; (endpoint: mean survival time, dose: 200.0 mg/kg/injection, schedule: Q04DX003 (ip), vehicle: other) 96 % of control; (endpoint: mean survival time, dose: 400.0 mg/kg/injection, schedule: Q04DX003 (ip), vehicle: other) 104 % of control.

For the compound `CC(C)C/C(=N\Nc1ccccc1)c1ccccn1`, the T/C runs as follows: (endpoint: mean survival time, dose: 100.0 mg/kg/injection, schedule: Q01DX001 (ip), vehicle: saline) 101 % of control; (endpoint: mean survival time, dose: 200.0 mg/kg/injection, schedule: Q01DX001 (ip), vehicle: saline) 100 % of control; (endpoint: mean survival time, dose: 400.0 mg/kg/injection, schedule: Q01DX001 (ip), vehicle: saline) 97 % of control.
